In patent EP4722219A1 (Gan & Lee Pharmaceuticals Co., Ltd., priority 2023, dated 2024):

Target: T1, AR protein (Homo sapiens, UniProt P10275)
T1 construct: host or cells: VCaP
T1 sequence (P10275 1-920): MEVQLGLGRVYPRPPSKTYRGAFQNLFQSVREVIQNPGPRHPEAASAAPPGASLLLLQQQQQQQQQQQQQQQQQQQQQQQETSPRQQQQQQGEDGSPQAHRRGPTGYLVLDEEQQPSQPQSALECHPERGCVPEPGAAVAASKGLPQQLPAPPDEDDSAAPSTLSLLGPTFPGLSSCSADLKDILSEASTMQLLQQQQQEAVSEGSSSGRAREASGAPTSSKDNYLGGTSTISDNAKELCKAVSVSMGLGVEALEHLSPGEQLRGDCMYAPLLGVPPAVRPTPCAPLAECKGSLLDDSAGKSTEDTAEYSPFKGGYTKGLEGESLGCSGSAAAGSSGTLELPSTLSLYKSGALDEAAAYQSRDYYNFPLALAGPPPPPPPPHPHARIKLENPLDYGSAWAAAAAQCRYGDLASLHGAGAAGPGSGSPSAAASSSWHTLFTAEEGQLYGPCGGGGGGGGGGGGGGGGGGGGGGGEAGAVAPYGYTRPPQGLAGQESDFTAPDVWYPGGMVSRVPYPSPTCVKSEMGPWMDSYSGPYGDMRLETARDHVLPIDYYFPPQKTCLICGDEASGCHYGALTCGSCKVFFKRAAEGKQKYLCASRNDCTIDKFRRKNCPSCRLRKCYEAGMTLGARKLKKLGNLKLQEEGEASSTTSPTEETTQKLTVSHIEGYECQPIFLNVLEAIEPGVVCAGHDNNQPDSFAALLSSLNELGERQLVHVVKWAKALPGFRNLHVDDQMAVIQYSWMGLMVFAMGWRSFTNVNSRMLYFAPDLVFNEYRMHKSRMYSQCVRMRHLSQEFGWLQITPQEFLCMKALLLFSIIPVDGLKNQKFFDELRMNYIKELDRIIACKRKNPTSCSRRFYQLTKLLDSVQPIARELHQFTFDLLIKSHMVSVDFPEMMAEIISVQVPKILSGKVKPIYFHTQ
Test: AR protein degradation in VCaP cells (Western blot)
Format: cell-based
Settings: 8h
Method in brief: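 AR-positive VCaP human prostate cancer cells grown in DMEM with 10% FBS were plated in six-well plates at 3×10^5 cells/well and incubated overnight. Compounds were then added at 1 µL/well alongside a solvent control and incubated for 8h. Lysates in RIPA buffer with protease inhibitor were quantified by BCA and run by SDS-PAGE. AR was detected by Western blot, and degradation was calculated from band grayscale normalized to GAPDH.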

Compound	AR protein degradation rate at fixed concentration (%) at 0.0005 µM (0.5 nM)	AR protein degradation rate at fixed concentration (%) at 0.005 µM (5 nM)	Degradation rate of AR protein in VCaP cells (0.5 nM)	Degradation rate of AR protein in VCaP cells (5 nM)
COc1cc(O[C@H]2C(C)(C)[C@H](NC(=O)c3ccc(N4CCC(F)(CN5CCC6(CC5)COc5cc7c(cc56)n(C)c(=O)n7C5CCC(=O)NC5=O)CC4)cc3)C2(C)C)ccc1C#N (stereo partly shown) [A-P-13]	44%	77%		
C[C@H]1CC2(CCN(c3ccc(C(=O)N4CCC(CN5CCC6(CCc7cc(C(=O)N[C@H]8CCC(=O)NC8=O)c(F)cc7O6)CC5)CC4)cc3)CC2)CN1c1ccc(C#N)c(Cl)c1 [A-P-35, 1'-((1-(4-((S)-2-(3-chloro-4-cyanophenyl)-3-methyl-2,8-diazaspiro[4.5]decan-8-yl)benzoyl)piperidin-4-yl)methyl)-N-((S)-2,6-dioxopiperidin-3-yl)-7-fluorospiro[chroman-2,4'-piperidin]-6-carboxamide]	9%	18%		
N-(1r,4r)-4-(3-chloro-4-cyanophenoxy)cyclohexy 1)-6-(4-(7-(2,6-dioxopiperidin-3-yl))-6-oxo-7,8-dihydro-2H,6H-dipyrido[2,3-e]isoindole-3,1'-cyclohexane-4',4‴-piperidin]-1"-yl)pyridazine-3-carboxamide [A-P-32]			14%	59%
COc1cc(O[C@H]2C(C)(C)[C@H](NC(=O)c3ccc(N4CCC(N5CC6(CCC7(CC6)COc6c7ccc7c6CN(C6CCC(=O)NC6=O)C7=O)C5)CC4)cc3)C2(C)C)ccc1C#N (stereo partly shown) [A-P-2]	50%	83%		
COc1cc(O[C@H]2C(C)(C)[C@H](NC(=O)c3ccc(N4CCC(F)(CN5CCC6(CC5)COc5c6ccc(C(=O)N[C@H]6CCC(=O)NC6=O)c5F)CC4)cc3)C2(C)C)ccc1C#N [A-P-84]			-14%	-17%
COc1cc(O[C@H]2C(C)(C)[C@H](NC(=O)c3ccc(N4CCC(C)(CN5CCC6(CC5)COc5cc7c(cc56)n(C)c(=O)n7C5CCC(=O)NC5=O)CC4)cc3)C2(C)C)ccc1C#N (relative stereo) [A-P-16]			66%	83%
Cn1c(=O)n(C2CCC(=O)NC2=O)c2ccc3c(c21)OCC31CCN(C2CC3(CCN(c4ccc(C(=O)N[C@H]5CC[C@H](Oc6ccc(C#N)c(Cl)c6)CC5)nn4)CC3)C2)CC1 (stereo partly shown) [A-P-25]	91%	90%		
C[C@H]1CC2(CCN(c3ccc(N4CCC(CN5CCC6(CCc7cc(C(=O)N[C@H]8CCC(=O)NC8=O)c(F)cc7O6)CC5)CC4)cc3)CC2)CN1c1ccc(C#N)c(Cl)c1 [A-P-42, 1'-((1-(4-((S)-2-(3-chloro-4-cyanophenyl)-3-methyl-2,8-diazaspiro[4.5]decan-8-yl)phenyl)piperidin-4-yl)methyl)-N-((S)-2,6-dioxopiperidin-3-yl)-7-fluorospiro[chroman-2,4'-piperidin]-6-carboxamide]	-40%	-4%		
COc1cc(O[C@H]2CC[C@H](NC(=O)c3ccc(N4CCC(CN5CCC6(CC5)COc5c6ccc6c5n(C)c(=O)n6C5CCC(=O)NC5=O)CC4)nn3)CC2)ccc1C#N (stereo partly shown) [A-P-22]	84%	69%		
COc1cc(O[C@H]2C(C)(C)[C@H](NC(=O)c3ccc(N4CCC(CN5CCC6(CCc7cc(F)c(C(=O)N[C@H]8CCC(=O)NC8=O)cc7O6)CC5)CC4)cc3)C2(C)C)ccc1C#N [A-P-39]			-6%	9%
N#Cc1ccc(O[C@H]2CC[C@H](NC(=O)c3ccc(N4CCC(N5CC6(CCC7(CC6)COc6c7ccc7c6CN(C6CCC(=O)NC6=O)C7=O)C5)CC4)nn3)CC2)cc1Cl (relative stereo) [A-P-1, N-((1r,4r)-4-(3-chloro-4-cyanophenoxy)cyclohexyl)-6-(4-(7'-(2,6-dioxopiperidin-3-yl)-6'-oxo-7',8'-dihydro-2'-H,6'-H-dihydro[azetidine-3,1'-cyclohexane-4',3"-furo[2,3-e]isoindol]-1-yl)piperidin-1-yl)pyridazine-3-carboxamide]			69%	82%
COc1cc(O[C@H]2C(C)(C)[C@H](NC(=O)c3ccc(N4CCC(CN5CCC6(CCc7cc(C(=O)N[C@H]8CCC(=O)NC8=O)c(F)cc7O6)CC5)CC4)nn3)C2(C)C)ccc1C#N [A-P-34, 1'-((1-(6-(((1R,3R)-3-(4-cyano-3-methoxyphenoxy)-2,2,4,4-tetramethylcyclobutyl)carbamoyl)pyridazin-3-yl)piperidin-4-yl)methyl)-N-((S)-2,6-dioxopiperidin-3-yl)-7-fluorospiro[chroman-2,4'-piperidin]-6-carboxamide]			0%	47%
COc1cc(O[C@H]2C(C)(C)[C@H](NC(=O)c3ccc(N4CCC(F)(CN5CCC6(CCc7cc(F)c(C(=O)N[C@H]8CCC(=O)NC8=O)cc7O6)CC5)CC4)cc3)C2(C)C)ccc1C#N [A-P-41]			13%	18%
COc1cc(O[C@H]2C(C)(C)[C@H](NC(=O)c3ccc(N4CCC5(CC4)CC(N4CCC6(CCc7cc(C(=O)N[C@H]8CCC(=O)NC8=O)c(F)cc7O6)CC4)C5)cc3)C2(C)C)ccc1C#N [A-P-37, 1'-(7-(4-(((1R,3R)-3-(4-cyano-3-methoxyphenoxy)-2,2,4,4-tetramethylcyclobutyl)carbamoyl)phenyl)-7-azaspiro[3.5]nonan-2-yl)-N-((S)-2,6-dioxopiperidin-3-yl)-7-fluorospiro[chroman-2,4'-piperidin]-6-carboxamide]			25%	49%
Cn1c(=O)n(C2CCC(=O)NC2=O)c2ccc3c(c21)OCC31CCN(C2CCN(c3ccc(C(=O)N[C@H]4CC[C@H](Oc5ccc(C#N)c(Cl)c5)CC4)nn3)CC2)CC1 (stereo partly shown) [A-P-23]	85%	74%		
COc1cc(O[C@H]2C(C)(C)[C@H](NC(=O)c3ccc(N4CCC(CN5CCN6c7ccc(N[C@H]8CCC(=O)NC8=O)cc7OC[C@@H]6C5)CC4)cc3)C2(C)C)ccc1C#N [A-P-100]			-20%	21%
COc1cc(O[C@H]2C(C)(C)[C@H](NC(=O)c3ccc(N4CCC(CN5CC6(CCC7(CC6)COc6c7ccc7c6CN(C6CCC(=O)NC6=O)C7=O)C5)CC4)cc3)C2(C)C)ccc1C#N (relative stereo) [A-P-3]			53%	87%
COc1cc(O[C@H]2C(C)(C)[C@H](NC(=O)c3ccc(N4CCC(CN5CCN6c7ccc(C(=O)N[C@H]8CCC(=O)NC8=O)cc7OC[C@@H]6C5)CC4)cc3)C2(C)C)ccc1C#N [A-P-67]			20%	70%
COc1cc(O[C@H]2CC[C@H](NC(=O)c3ccc(N4CCC(CN5CCC6(CC5)COc5cc7c(cc56)n(C)c(=O)n7C5CCC(=O)NC5=O)CC4)nn3)CC2)ccc1C#N (relative stereo) [A-P-17]			81%	75%
COc1cc(O[C@H]2C(C)(C)[C@H](NC(=O)c3ccc(N4CCC(CN5CCC6(CCc7cc(F)c(C(=O)N[C@H]8CCC(=O)NC8=O)cc7O6)CC5)(OC)CC4)cc3)C2(C)C)ccc1C#N [A-P-40]			-8%	10%
(R)-3-((1-(4-(((S)-2-(3-chloro-4-cyanophenyl)-3-methyl-2,8-diazaspiro[4.5]decan-8-yl)phenyl)piperidin-4-yl)methyl)-N-(((S)-2,6-dioxopiperidin-3-yl)-1,2,3,4,4a,5-hexahydrobenzo[b]pyrazi no[1,2-d][1,4]oxazine-8-carboxamide [A-P-58]			12%	37%
C[C@H]1CC2(CCN(c3ccc(C(=O)N4CCC(CN5CCN6c7ccc(C(=O)N[C@H]8CCC(=O)NC8=O)cc7OC[C@H]6C5)CC4)cc3)CC2)CN1c1ccc(C#N)c(Cl)c1 [A-P-68]			5%	33%
COc1cc(O[C@H]2C(C)(C)[C@H](NC(=O)c3ccc(N4CCC5(CC4)CC(N4CCC6(CC4)COc4cc7c(cc46)n(C)c(=O)n7C4CCC(=O)NC4=O)C5)cc3)C2(C)C)ccc1C#N (relative stereo) [A-P-21]			57%	71%
